Target: T1, Enoyl-[acyl-carrier-protein] reductase [NADH] (Mycobacterium tuberculosis (strain ATCC 25618 / H37Rv), UniProt P9WGR1)
T1 sequence (P9WGR1 whole entry): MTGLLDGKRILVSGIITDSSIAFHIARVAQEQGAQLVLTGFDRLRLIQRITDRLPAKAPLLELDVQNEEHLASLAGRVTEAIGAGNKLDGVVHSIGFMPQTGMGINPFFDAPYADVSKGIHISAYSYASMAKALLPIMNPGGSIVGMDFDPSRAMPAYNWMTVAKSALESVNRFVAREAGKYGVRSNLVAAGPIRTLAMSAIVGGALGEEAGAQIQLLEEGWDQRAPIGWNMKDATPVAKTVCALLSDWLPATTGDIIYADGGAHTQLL
Experiment: Inhibition of Mycobacterium tuberculosis InhA

| Compound | IC50 |
| --- | --- |
| CCCCCCc1ccc(Oc2ccccc2C#N)c(O)c1 [PT119] | 0.236 µM |
| CCCCCCc1ccc(Oc2ccccc2Cl)c(O)c1 [PT91] | 0.049 µM |

Reference: BindingDB's records for doi:10.1016/j.ejmech.2018.01.047 (Cnrs, 2018)
